Experimental data taken from patent publication US12728111B2, “Electrophilic compounds and electrophilic prodrugs for treating aneurysm” (University of Pittsburgh—Of the Commonwealth System of …, priority 2020, dated 2026).

How the values were obtained:
[1] = system: AngII/PCSK9-induced AAA mouse model; assay: Ang II plus hypercholesterolemia (AngII/PCSK9) induced AAA mouse model; type: in vivo
Procedure: FIG. 1. Characterization of the protective effect of NO2—OA (10-nitro-octadec-9-enoic acid) in the Ang II plus hypercholesterolemia-induced AAA mouse model. (A) Schematic illustration of the in vivo experimental design. Ten week old male C57BL/6 mice were IP injected with AAV carrying PCSK9 gain-of-function (D377Y) mutation and fed a western diet. After two weeks, each mouse was implanted with a pump delivering AngII at a rate of 1,500 ng/kg/min plus an additional pump containing either PEG-400 (vehicle), OA or NO2—OA with a delivery rate of 5 mg/kg/day (n=25 to 30 per group) and carried to the endpoint for another four weeks. Mice with ruptured aorta within the first week or with total plasma cholesterol less than 250 mg/dl were excluded from the study. (B) Representative morphological differences of the abdominal aorta. (C) AAA incidence calculated by using 1.2 mm as the cutoff diameter indicated by the dotted line in (D). (D) Average maximal diameter of the suprarenal aorta region. (E) Representative H&E and VVG staining of the paraffin-embedded suprarenal aortic cross-sections (5 μm). (F) Grade of elastic fiber degradation in the aorta (1 to 4). A 2×3 Fisher's exact test followed by posthoc test was performed for (C). For (D) and (F), the Kruskal-Wallis test followed by Dunn's multiple comparisons was performed. Continuous data are presented as mean±SEM. Scale bar=20 μm for (E). A p<0.05 for both the main test and post hoc test was considered statistically significant.
Ten weeks old male C57BL/6J mice were purchased from The Jackson Laboratory. The murine AAA model induced by AngII/PCSK9 gain-of-function mutation is well-established. After acclimation for 1 week, mice were fed a western diet (TD.88137, Envigo) and intraperitoneally injected with 2×1011 genomic copies of AAV-PCSK9.D377Y (AAV serotype 8, Penn Vector Core). Two weeks later, each mouse was subcutaneously implanted with two osmotic pumps (Model #2004, Alzet). One was loaded with AngII (#H-1706, Bachem), releasing at a rate of 1,500ng/kg/min, while the other one was loaded with PEG-400, OA or NO2—OA at a delivery rate of 5 mg/kg/day for OA or NO2—OA. After 4-weeks infusion, mice were euthanized and the maximal outer diameter of the suprarenal aorta was assessed with a digital caliper by a third person blinded to the treatment. Suprarenal aortas with a maximal diameter ≥50% larger than standard size (≥1.2 mm) were considered as abdominal aortic aneurysms. Mice dead within the first week of pump implantation or with a serum total cholesterol level less than 250 mg/dL were excluded from the study. All animal procedures were performed following the protocols approved by the Institutional Animal Care & Use Committee (IACUC) at the University of Michigan.
H&E and Verhoeff Van Gieson staining of paraffin or frozen sections of mouse suprarenal abdominal aorta were performed by the In-Vivo Animal Core at the University of Michigan. Elastin degradation grade was calculated as we previously reported.

[2] = system: oxLDL-induced Il1b and Mmp9 expression in BMDMs; assay: Real-time PCR of oxLDL-induced pro-inflammatory genes in BMDMs; type: cell-based, mouse; settings: PPARγ antagonist or siRNA given with NO2—OA
Procedure: FIG. 3. NO2—OA prevents oxLDL-induced NFκB activation and pro-inflammatory cytokine production. Primary BMDMs were pretreated with vehicle, OA (2.5 μM) or NO2—OA (2.5 μM) for 1 h, followed by treatment of oxLDL (50 to 100 μg/ml) for the indicated times. (A, B) Nuclear (A) and cytoplasmic protein (B) fractions were isolated 1 h after oxLDL treatment and subjected to western blot with antibodies against p65, lamin a/c (nuclear marker) and GAPDH (cytosolic marker). Representative western blot images of three independent experiments are shown. (C) Quantification of the p65 nuclear to cytoplasmic ratio by image studio (normalized by the internal control, n=3). (D-F) Following 8 h of oxLDL treatment, levels of IL6, MCP1 and TNFα in the cell medium were measured by ELISA (n=4). (G) Real-time PCR quantification of gene expression levels of IL1b and Mmp9 in total mRNA extracted from the BMDMs. (C) Ordinary one-way ANOVA followed by Tukey's test was performed. As of (D-F), the basal level contains several non-detectable values, so ordinary one-way ANOVA followed by correction of FDR were performed for the oxLDL-treated groups only. Ordinary one-way ANOVA followed by Tukey's test was performed for (G). Data presented as mean±SEM. A p<0.05 for both the main test and post hoc test was considered statistically significant.
Mice suprarenal aortas were collected after the measurement of their diameter. Human aortic aneurysm samples were obtained from the Department of Cardiac Surgery at the University of Michigan. Samples from humans and mice were snap-frozen in liquid nitrogen for later processing. RNA from tissue was extracted using TRIzol (#15596018, Invitrogen). RNA from cells was isolated with the RNeasy Mini Kit (#74106, QIAGEN). SuperScript™ III First-Strand Synthesis System (#18080051, Invitrogen) was used to reverse-transcribe mRNA into cDNA. Gene expression was quantified in triplicates by quantitative real-time PCR (qPCR) using IQ SYBR Green Supermix (#1708882, Bio-Rad) with the indicated gene primers.

CCCCCCCCC=CCCCCCCCC(=O)O [OA, octadec-9-enoic acid, reference compound]
AAA incidence ([1]; 5 mg/kg/day subcutaneous infusion, after 4 weeks, cutoff diameter 1.2 mm): 69.6% | maximal diameter of the suprarenal aorta region ([1]; 5 mg/kg/day subcutaneous infusion, after 4 weeks, mean±SEM): 1.78±0.18 mm | ECM degradation / elastin fiber degradation ([1]; 5 mg/kg/day, 4 weeks, VVG staining, grade 1 to 4): prominent

O=C(Nc1ccccc1)c1cc([N+](=O)[O-])ccc1Cl [GW9662, reference compound]
protective effect of NO2—OA on oxLDL-induced Il1b and Mmp9 expression [2]: partially blocked
